Results on two compounds are retold here after patent publication US11014902B2, “MYC G-quadruplex stabilizing small molecules and their use” (The United States of America, as represented by the …, priority 2015, dated 2021).

Like-named read-outs stand apart in the source and are kept apart here.

In general, IC50 refers to the concentration that gives 50% inhibition.

One test relates to L363 cells. Kind of test: L363 cell viability (MTS). The class given is cell-based, human. The following applies: Homo sapiens. Here is the method: Since two thirds of multiple myeloma cases involve deregulated c-MYC expression (Kuehl and Bergsagel, Blood 2012, 120, 2351; Shou, et al., Proc Natl Acad Sci USA 2000, 97, 228), we elected to evaluate the cell viability effects of Compound 1 in a multiple myeloma model. […] This suppression was maintained over 72 hours, which is notable given the characteristic rapid replenishment of the protein—a phenomenon that complicates targeting c-Myc at the protein level (FIG. 4C). This effect was maintained across a genetically diverse set of 4 multiple myeloma lines. We observed decreases in c-MYC translation in all lines tested, and this effect also correlated with decreases in viability (FIG. 4D).
Human multiple myeloma and Burkitt's Lymphoma cell lines L363, CA46, MM-1R, KMS-11, and MM-1S were cultured and authenticated as previously described (Simmons, et al., Molecular oncology 2014, 8, 261). All plasma derived cell lines were cultured in RPMI-1640 (2 mM L-glutamine, 10% fetal bovine serum (FBS), 100 U/ml penicillin, 100 μg/ml streptomycin: Gibco) and incubated at 37° C. with 5% CO2. Viability experiments were performed in quadruplicate on 96-well plates (Costar) at designated time and dose points. MTS reagent was then directly added, incubated at 37° C. for 90 min, and absorbance of MTS formazan was read at 500 nm on an Omega 640 spectrophotometer. Percentage cell viability was normalized to the absorbance of untreated (DMSO) wells. In the case of cells harvested for their protein or RNA, pellets were flash frozen and stored at −80° C. overnight prior to use. […]

Test [1] has as its system c-MYC expression in L363 cells. Kind of test: Inhibition of c-MYC expression in L363 cells (Peggy). The conditions noted are these: Homo sapiens, L-363, L363 cells, at 10 μM; read-out: Peggy (% c-Myc expression compared to untreated). The class given is cell-based, human. An excerpt: FIG. 10 illustrates an exemplary procedure for generating analogs of Compound 1. The amine group of Compound 1 can be varied in reductive aminations to provide additional analogs. […] The table also provides an indication of an exemplary commercial source for the compounds, or (if applicable) an indication that the compound is new.

Test [2] relates to MYC expression in L363 cells. Kind of test: Gene expression analysis (Nanostring, qPCR), MYC. The class given is cell-based, human. The following applies: for c-Myc expression (qPCR): L363 cells. The protocol: (§1) Gene expression analysis was performed on a panel of 770 cancer-associated genes in a multiplexed (nanostring) transcriptional assay. In addition to c-MYC itself, several c-Myc target genes were included in the panel, as were a number of other quadruplex-driven genes. […] Additionally, a third data set was collected comparing Compound 1 treatment to JQ-1 (a BET-bromodomain inhibitor) and quarfloxin (another quadruplex-binding small molecule).
(§2) The effects of Compound 1 on a number of known quadruplex-driven genes in the panel were examined further (FIG. 6). Expression levels of MYC, RB1, VEGFA, KRAS, and HIF1α, all of which are reported to be under the control of promoter G4s, and are expressed in L363 cells, were included in the panel of genes evaluated by Nanostring as discussed above. […] These changes in gene expression are in line with biophysical measurements of compound affinity. Corresponding data showing similar results is presented for Compounds 1 and 23 in FIGS. 14A and 14B. […] These observations further highlight the ability of Compound 1 and Compound 23 to specifically target the expression of c-Myc and related pathways.
(§3) The phenotype for c-MYC genetic knockdown in multiple myeloma was achieved through lentiviral transduction of shRNA for c-MYC, derived from the spinoculation of 293T cells and plasmids grown in STBL3 E. coli, and isolated with the Qiagen Plasmid Midi Kit. Aliquots of the plasmids were generously provided by Art Shaffer. RNA of treated myeloma cells at designated time points was isolated with the Qiagen RNeasy kit, and used with the nCounter Human Cancer Reference Kit (NanoString Technologies), surveying changes in expression for […] cancer-related human genes and 6 reference genes. Quantitative changes in expression were analyzed and grouped in the form of a heat map using the programming language, R. All other quantitative statistical packing was performed in GraphPad Prism.
Background: Quantitative PCR measures a nucleic acid by following its amplification.

The subject of test [3] is RB1, VEGFA, KRAS, HIF1α, BCL2 expression in L363 cells. Kind of test: Gene expression analysis (Nanostring, qPCR), other G4-associated genes. The class given is cell-based, human. The conditions noted are these: for expression of other G-quadruplex containing genes (qPCR): L363 cells. The protocol: as §1, §2, §3
The subject of the next test is A549/ATCC. Kind of test: NCI-60 cell growth (SRB). The class given is cell-based. The conditions noted are these: Non-Small Cell Lung Cancer, 10 μM, 48 hours. Here is the method:
(§4) This example illustrates that Compounds 1 and 23 can be used in inhibit the growth of c-Myc expressing cancer cell lines in vitro. The NCI-60 panel of cancer cell lines (see Shoemaker, Nat. Rev. Cancer, 6, 813-823, 2006, and dtp.cancer.gov/discovery_development/nci-60/) was assayed for cell growth in the presence of 10 μM Compound 1 or Compound 23 for 48 hours. At 48 hours, the assay was terminated by fixation with TCA and determination of relative cell counts by addition of Sulforhodamine B (SRB, see Alley et al., Cancer Research, 48: 589-601, 1988.). Growth percent was determined by comparison of SRB reading of a duplicate plate of cells taken at the time of compound addition to the SRB reading at the termination of the treatment. The following table provides a summary of the percent of growth of each cell line in the panel compared to control (no treatment), as well as the mean delta and range of percent growth compared to control across the panel of cell lines for each treatment condition.

The test system of a further test is HCC-2998. The test is described as follows: NCI-60 cell growth (SRB). Type of test: cell-based. The conditions noted are these: HCC-2998, Colon Cancer; 10 μM, 48 hours. Here is the method: as §4
In another test the test system is HOP-62. The test is described as follows: NCI-60 cell growth (SRB). Type of test: cell-based. The conditions noted are these: HOP-62, Non-Small Cell Lung Cancer; 10 μM, 48 hours. Here is the method: as §4
For the next test, the system named is MDA-MB-231/ATCC. The test is described as follows: NCI-60 cell growth (SRB). Type of test: cell-based. The following applies: Breast Cancer, 10 μM, 48 hours. Here is the method: as §4
In the next test the test system is NCI/ADR-RES. Kind of test: NCI-60 cell growth (SRB). The class given is cell-based. The following applies: Ovarian Cancer, 10 μM, 48 hours. Here is the method:
as §4

In another test the test system is PC-3. Kind of test: NCI-60 cell growth (SRB). Type of test: cell-based. The following applies: PC-3, Prostate Cancer; 10 μM, 48 hours. Here is the method:
as §4

For the next test, the system named is SF-268. Kind of test: NCI-60 cell growth (SRB). The class given is cell-based. The following applies: SF-268, CNS Cancer; 10 μM, 48 hours. The protocol:
as §4

In another test the test system is SK-MEL-2. Kind of test: NCI-60 cell growth (SRB). The class given is cell-based. The conditions noted are these: SK-MEL-2, Melanoma; 10 μM, 48 hours. Here is the method:
as §4

The subject of test [4] is NCI-60 panel of cancer cell lines. The test is described as follows: NCI-60 cell growth (SRB), summary across the panel. The class given is cell-based. The conditions noted are these: 10 μM, 48 hours; for Growth Percent, Delta: delta across the panel; for Growth Percent, Mean: mean across the panel; for Growth Percent, Range: range across the panel. The protocol:
as §4

[5] abbreviates: L-363, viability of L363 cells, read-out: IC50.
Setting [6] is: 48 hours, 10 μM BRACO-19, 10 μM Compound 1, 7.5 μM Compound 23.

In the case of `Cc1ccc(NC(=O)c2c(C)oc3ccc(O)c(CN4CCCCCC4)c23)cc1` [Compound 1], the IC50 was determined as 7.6 ± 1.1 µM in the test with L363 cells (L-363, 72 h, after 72 hours, read-out: IC50 myeloma cell viability) and 7.6 µM in the test on L363 cells (setting [5]). In addition, the activity at 10 µM in [1] was found to be 50%. Further, in test [2] (10 μM, 2 h to 48 h), the “MYC expression (nanostring)” value is given as “substantially reduced”. Also, in test [2] (5, 10 or 12.5 μM, 48 hours), the “MYC expression (qPCR)” value was “greatly reduced”. Also, in test [2] (setting [6]), the “c-Myc expression (qPCR)” value is reported as “reduced c-Myc expression”. Moreover, the “expression of other G4-associated genes (nanostring)” value in test [3] (10 μM, 2 h to 48 h) is given as “minimally affected”. In test [3] (5, 10 or 12.5 μM, 48 hours), the “expression of other genes (qPCR)” value is recorded as “minimally affected”. For the same compound, the “expression of other G-quadruplex containing genes (qPCR)” value in test [3] (setting [6]) is on record as “minimally affecting expression of other G-quadruplex containing genes”. Besides, the “Growth Percent” value came to 85.87% in the test on A549/ATCC; 116.36% with HCC-2998; 79.76% in the test with HOP-62; 79.39% in the test with MDA-MB-231/ATCC; 89.34% in the test on NCI/ADR-RES; 79.90% with PC-3. Besides, the figures for the “Growth Percent” value in the test on SF-268 and in the test on SK-MEL-2 were 100.73% and 99.26%, respectively. Also, in [4], the “Growth Percent, Delta” value came out at 32.50%. For the same compound, in test [4], the “Growth Percent, Mean” value was determined as 88.39%. In [4], the “Growth Percent, Range” value was 60.47%.

With `Cc1oc2ccc(O)c(CN3CCCCCC3)c2c1C(=O)Nc1ccc(C(F)(F)F)cc1` [Compound 23], the IC50 in the test with L363 cells (L-363, L363, read-out: IC50) was determined as 3.64 µM; in the test on L363 cells (setting [5]), 3.6 µM. The activity at 10 µM in test [1] is 0.44%. In addition, the “c-Myc expression (qPCR)” value in test [2] (5 μM, 24 or 48 hours) was “reduced c-Myc expression”; in test [2] (setting [6]), “reduced c-Myc expression”. Moreover, the “expression of other G-quadruplex containing genes (qPCR)” value in test [3] (5 μM, 24 or 48 hours) is “minimally affecting expression of other G-quadruplex containing genes”; in [3] (setting [6]), “minimally affecting expression of other G-quadruplex containing genes”. Also, the “Growth Percent” value with A549/ATCC came to 61.22%; with HCC-2998, 11.22%; in the test with HOP-62, 70.39%; in the test with MDA-MB-231/ATCC, 48.96%; with NCI/ADR-RES, 53.65%; with PC-3, 45.70%. Further, the “Growth Percent” value in the test on SF-268 is given as 75.44%; in the test on SK-MEL-2, 78.38%. In addition, the “Growth Percent, Delta” value in test [4] amounted to 67.00%. Besides, the “Growth Percent, Mean” value in test [4] is listed as 58.56%. The “Growth Percent, Range” value in [4] is recorded as 94.23%.
